The source of these data is patent US20230044787A1, “TRICYCLE DIHYDROIMIDAZOPYRIMIDONE DERIVATIVE, PREPARATION METHOD THEREOF, PHARMACEUTICAL COMPOSITION AND USE THEREOF” (priority 2019, published 2023).

As a reminder, the IC50 is the concentration that gives 50% inhibition.

The test addresses T1, Lp-PLA2 (Homo sapiens, UniProt Q13093).
T1 construct: aliquoted and thawed 40 μL of pooled human plasma was previously added; from tissue; host or cells: pooled human plasma
T1 sequence (Q13093 22-441): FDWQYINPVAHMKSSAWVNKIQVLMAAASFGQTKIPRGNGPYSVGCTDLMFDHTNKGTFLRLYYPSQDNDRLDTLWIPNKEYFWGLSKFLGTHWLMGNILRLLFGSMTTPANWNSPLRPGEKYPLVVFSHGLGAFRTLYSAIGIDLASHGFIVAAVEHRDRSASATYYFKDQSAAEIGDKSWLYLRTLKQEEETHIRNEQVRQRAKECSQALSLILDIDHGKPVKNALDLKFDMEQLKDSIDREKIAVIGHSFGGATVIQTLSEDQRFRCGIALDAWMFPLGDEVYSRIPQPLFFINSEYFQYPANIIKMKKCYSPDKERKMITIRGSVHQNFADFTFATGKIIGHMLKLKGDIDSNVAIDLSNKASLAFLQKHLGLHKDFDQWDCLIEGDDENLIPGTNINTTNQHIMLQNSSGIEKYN
Description: Lipoprotein-associated phospholipase A2 (Lp-PLA2) human plasma assay (Thio-PAF assay). Type of test: biochemical. Conditions: Lp-PLA2 human plasma assay (Thio-PAF), pooled human plasma, 30-min pre-incubation at room temperature.
In the case of `CC(C)(O)C12CN3c4cc(OCc5ccc(Oc6ccnc(C(F)(F)F)c6)c(F)c5)nc(=O)n4CC3(C1)C2` [Example 201, 3-((3-Fluoro-4-((2-trifluoromethylpyridin-4-yl)oxy)benzyl)oxy)-7-(2-hydroxypropyl-2-yl)-7,8-dihydro-1H,6H,9H-7,8a-methanopyrrolo[1′, 2′:3, 4]imidazo[1,2-c]pyrimidin-1-one], the IC50 was 4.4 nM. Take `COc1c(OCCc2cc(F)c(Oc3ccnc(C(F)(F)F)c3)c(F)c2)nc(=O)n2c1N1CC3CC1(C3)C2` [Example 189, 3-(3,5-difluoro-4-((2-(trifluoromethyl)pyridin-4-yl)oxy)phenethoxy)-4-methoxy-7,8-dihydro-1H,6H,9H-7,8a-methanopyrrolo[1′,2′:3,4] imidazo[1,2-c] pyrimidin-1-one]: the IC50 is 8.6 nM. `O=c1nc(OCCc2ccc(Oc3ccc(Cl)c(C(F)(F)F)c3)c(F)c2)cc2n1CC13CC(CN21)C3` [Example 186, 3-(4-(4-chloro-3-(trifluoromethyl)phenoxy)-3-fluorophenethoxy)-7,8-dihydro-1H,6H,9H-7,8a-methanopyrrolo[1′,2′:3,4]imidazo[1,2-c] pyrimidin-1-one]: the IC50 was determined as 7.4 nM. As for `O=c1nc(OCc2cc(F)c(Oc3ccnc(C(F)(F)F)c3)c(F)c2)cc2n1CC13CC(CN21)C3` [Example 36, 3-((3,5-difluoro-4-((2-(trifluoromethyl)pyridin-4-yl)oxy)benzyl)oxy)-7,8-dihydro-1H,6H,9H-7,8a-methanopyrrolo[1′,2′:3,4] imidazo[1,2-c]pyrimidin-1-one], the IC50 came to 9.6 nM.

Take `N#Cc1cc(Oc2ccc(COc3cc4n(c(=O)n3)CC35CC(CN43)C5)cc2F)cc(C(F)(F)F)c1` [Example 95]: the IC50 was determined as 7.4 nM. Turning to `O=c1nc(OCc2ccc(Oc3ccnc(C(F)F)c3)c(F)c2)cc2n1CC13CCC(CC1)N23` [Example 196], the 50% inhibitory concentration (IC50) amounted to 15.4 nM. On to `N#Cc1cc(COc2cc3n(c(=O)n2)CC24CC(CN32)C4)ccc1Oc1ccnc(C(F)(F)F)c1` [Example 43], for which the IC50 is 4 nM. As to `O=c1nc(OCc2cc(F)c(F)c(F)c2)cc2n1C[C@@]13CO[C@@H](CN21)C3` [Example 35, (3R,11aS)-7-((3,4,5-trifluorobenzyl)oxy)-3,4-dihydro-1H,9H,11H-3,11a-methanopyrimido[6′,1′:2,3] imidazo[5,1-c][1,4]oxazin-9-one], the IC50 came out at 38.8 nM. `N#Cc1cc(COc2cc3n(c(=O)n2)C[C@@]24CO[C@@H](CN32)C4)ccc1Oc1ccc(C(F)(F)F)cc1` [Example 34, 5-((((3R,11aS)-9-oxo-3,4-dihydro-1H,9H,11H-3,11a-methanopyrimido[6′,1′:2,3]imidazo[5,1-c][1,4]oxazin-7-yl)oxy)methyl)-2-(4-(trifluoromethyl)phenoxy) benzonitrile]: the IC50 was 3.6 nM. Turning to `COc1c(OCCc2ccc(Oc3ccnc(C(F)(F)F)c3)cc2)nc(=O)n2c1N1CC3CC1(C3)C2` [Example 188], the IC50 came to 9.2 nM.

On to `CC12CCCN1c1cc(OCc3ccc(Oc4ccc(F)c(C(F)(F)F)c4)nc3)nc(=O)n1C2` (centres unmarked) [Example 58, 3-((6-(4-fluoro-3-(trifluoromethyl)phenoxy)pyridin-3-yl)methoxy)-8a-methyl-7,8,8a,9-tetrahydro-1H,6H-pyrrolo[1′,2′:3,4]imidazo [1,2-c]pyrimidin-1-one], for which the IC50 came to 204 nM. As for `O=c1nc(OCc2ccc(Oc3ccnc(C(F)F)c3)c(F)c2)cc2n1CC13CC(CN21)C3` [Example 162], the IC50 came out at 6.5 nM.

For the compound `O=c1nc(OCCc2cc(F)c(Oc3ccnc(C(F)(F)F)c3)c(F)c2)cc2n1CC13CC(CN21)C3` [Example 169, 3-(3,5-Difluoro-4-((2-(trifluoromethyl)pyridin-4-yl)oxy)phenethoxy)-7,8-dihydro-1H1,6H1,9H-7,8a-methanopyrrolo[1′, 2′:3, 4]imidazo[1,2-c]pyrimidin-1-one], the IC50 was determined as 4.9 nM.

Turning to `O=c1nc(OCc2cc(F)c(F)c(F)c2)cc2n1CC13CC(CN21)C3` [Example 98, 3-((3,4,5-trifluorobenzyl)oxy)-7,8-dihydro-1H,6H,9H-7,8a-methanopyrrolo[1′,2′:3,4] imidazo[1,2-c]pyrimidin-1-one], the IC50 came out at 30.2 nM.

As for `O=c1nc(OCc2cc(F)c(Oc3cccc(C(F)F)c3)c(F)c2)cc2n1C[C@]13CO[C@H](CN21)C3` [Example 179], the IC50 came out at 4.1 nM. With `Cc1cc(Oc2c(F)cc(COc3cc4n(c(=O)n3)CC3(C)COCCN43)cc2F)ccn1` (centres unmarked) [Example 79, 7-((3,5-difluoro-4-((2-methyl-pyridin-4-yl)oxy)benzyl)oxy)-11a-methyl-3,4,11,11a-tetrahydro-1H,9H-pyrimido[6′,1′:2,3]imidazo [5,1-c][1,4]oxazin-9-one], the half-maximal inhibitory concentration (IC50) was 6.1 nM. Then `CC12CCCN1c1cc(OCCc3ccc(Oc4ccc(Cl)c(C(F)(F)F)c4)cc3)nc(=O)n1C2` (centres unmarked) [Example 61, 3-(4-(4-chloro-3-(trifluoromethyl)phenoxy)phenethoxy)-8a-methyl-7,8,8a,9-tetrahydro-1H,6H-pyrrolo[1′,2′:3,4]imidazo [1,2-c]pyrimidin-1-one], with 3.4 nM; and `O=c1nc(OCc2ccc(Oc3cccc(C(F)(F)F)c3)c(F)c2)cc2n1C[C@]13CO[C@H](CN21)C3` [Example 192], with 6.3 nM; and `O=c1nc(OCc2ccc(Oc3ccnc(C(F)(F)F)c3)c(F)c2)cc2n1CC13CCC(COC1)N23` (centres unmarked) [Example 152, 7-((3-fluoro-4-((2-(trifluoromethyl)pyridin-4-yl)oxy)benzyl)oxy)-3,4-dihydro-1H,9H,11H-4,11a-ethanopyrimido[6′,1′:2,3] imidazo[5,1-c][1,4]oxazin-9-one], with 3.9 nM. Turning to `COc1c(OCCc2ccc(Oc3cccc(C(F)(F)F)c3)cc2)nc(=O)n2c1N1CC3CC1(C3)C2` [Example 184, 4-methoxy-3-(4-(3-(trifluoromethyl)phenoxy)phenethoxy)-7,8-dihydro-1H,6H,9H-7,8a-methanopyrrolo[1′,2′:3,4]imidazo[1,2-c] pyrimidin-1-one], the concentration for half-maximal inhibition (IC50) amounted to 23.8 nM. With `O=c1nc(OCc2cc(F)c(Oc3cccc(C(F)(F)F)c3)c(F)c2)cc2n1C[C@]13CO[C@H](CN21)C3` [Example 194, (3S,11aR)-7-((3,5-difluoro-4-(3-(trifluoro-methyl)phenoxy)benzyl)oxy)-3,4-dihydro-1H,9H,11H-3,11a-methanopyrimido[6′,1′:2,3] imidazo[5,1-c][1,4]oxazin-9-one] the figure was 4 nM. As to `N#Cc1cc(COc2cc3n(c(=O)n2)CC24CC(CN32)C4)ccc1Oc1cccc(C(F)(F)F)c1` [Example 42], the IC50 came out at 4.9 nM. With `N#Cc1cc(Oc2ccc(COc3cc4n(c(=O)n3)C[C@]35CO[C@H](CN43)C5)cc2F)cc(C(F)(F)F)c1` [Example 12] the figure was 4.3 nM; with `CN1C[C@]23C[C@H]1CN2c1cc(OCc2ccc(Oc4ccnc(C(F)(F)F)c4)c(F)c2)nc(=O)n1C3` [Example 171, (3S,11aS)-7-((3-Fluoro-4-((2-(trifluoromethyl)pyridin-4-yl)oxy)benzyl)oxy)-2-methyl-1,2,3,4-tetrahydro-9H,11H-3,11a-methanopyrazino[1′, 2′:3, 4]imidazo[1,2-c]pyrimidin-9-one], 2.1 nM; with `CN1C(=O)[C@]23C[C@H]1CN2c1cc(OCc2ccc(Oc4ccc(Cl)c(C(F)(F)F)c4)c(C#N)c2)nc(=O)n1C3` [Example 168], 3.6 nM. Regarding `O=c1nc(OCc2cc(F)c(Oc3cnc(C(F)(F)F)nc3)c(F)c2)cc2n1C[C@]13CO[C@H](CN21)C3` [Example 7, (3S,11aR)-7-((3,5-difluoro-4-((2-(trifluoromethyl)pyrimidin-5-yl)oxy)benzyl)oxy)-3,4-dihydro-1H,9H,11H-3,11a-methanopyrimido[6′,1′:2,3] imidazo[5,1-c][1,4]oxazin-9-one], the 50% inhibitory concentration (IC50) was 2.5 nM.

For the compound `COc1c(OCc2cc(F)c(F)c(F)c2)nc(=O)n2c1N1C[C@@H]3C[C@]1(CO3)C2` [Example 114, (3S,11aR)-7-((3,4,5-trifluorobenzyl)oxy)-6-methoxy-3,4-dihydro-1H,9H,11H-3,11a-methanopyrimido[6′,1′:2,3] imidazo[5,1-c][1,4]oxazin-9-one], the half-inhibitory concentration (IC50) came to 5.7 nM. Take `Cc1c(OCc2ccc(Oc3ccnc(C(F)(F)F)c3)cc2)nc(=O)n2c1N1C[C@@H]3C[C@]1(CO3)C2` [Example 108, (3S,11aR)-7-((4-((2-(trifluoromethyl)pyridin-4-yl)oxy)benzyl)oxy)-6-methyl-3,4-dihydro-1H,9H,11H-3,11a-methanopyrimido[6′,1′:2,3] imidazo[5,1-c][1,4]oxazin-9-one]: the IC50 is 5 nM. Then `COc1c(CCc2ccc(Oc3ccnc(C(F)(F)F)c3)cc2)nc(=O)n2c1N1C[C@@H]3C[C@]1(CO3)C2` [Example 170, (3S,11aR)-6-Methoxy-7-(4-((2-(trifluoromethyl)pyridin-4-yl)oxy)phenethyl)-3,4-dihydro-1H,9H,11H-3,11a-methanopyrimido[6′,1′:2,3]imidazo[5,1-c] [1,4]oxazin-9-one], with 178 nM; and `O=c1nc(OCc2cc(F)c(Oc3cncc(C(F)(F)F)c3)c(F)c2)cc2n1CC13CC(CN21)C3` [Example 40], with 6.4 nM. Then `O=c1nc(OCc2ccc(Oc3ccnc(C(F)(F)F)c3)c(F)c2)cc2n1C[C@@]13C[C@@H](CN21)N(C1COC1)C3` [Example 172], with 2.2 nM. For `CCC12CCCN1c1cc(OCc3ccc(Oc4cc(C#N)cc(C(F)(F)F)c4)c(F)c3)nc(=O)n1C2` (centres unmarked) [Example 65], the IC50 worked out at 12.1 nM.
